Toxic doses and inconclusive results are not listed. Rule for the calls: active = survival T/C of 150% or more; inactive = T/C below 125% in these data.
Test system: CD2F1 mice, L1210 leukemia ip, survival T/C
Test: NCI In Vivo Anticancer Drug Screen. Data for tumor model L1210 Leukemia (intraperitoneal) in CD2F1 (CDF1) mice
Details: higher = longer survival
Outline: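 Tumor-bearing mice (transplanted tumor) were split into treated and vehicle control groups, and the measured endpoint of each treated group was divided by that of its vehicle controls.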

[1] = endpoint: mean survival time, dose: 100.0 mg/kg/injection, schedule: Q01DX001 (ip), vehicle: saline with Tween-80
[2] = endpoint: mean survival time, dose: 200.0 mg/kg/injection, schedule: Q01DX001 (ip), vehicle: saline with Tween-80
[3] = endpoint: mean survival time, dose: 400.0 mg/kg/injection, schedule: Q01DX001 (ip), vehicle: saline with Tween-80
[4] = endpoint: mean survival time, dose: 25.0 mg/kg/injection, schedule: Q01DX009 (ip), vehicle: saline with Tween-80
[5] = endpoint: mean survival time, dose: 50.0 mg/kg/injection, schedule: Q01DX009 (ip), vehicle: saline with Tween-80
[6] = endpoint: mean survival time, dose: 100.0 mg/kg/injection, schedule: Q01DX009 (ip), vehicle: saline with Tween-80
[7] = endpoint: mean survival time, dose: 100.0 mg/kg/injection, schedule: Q01DX001 (ip), vehicle: saline
[8] = endpoint: mean survival time, dose: 200.0 mg/kg/injection, schedule: Q01DX001 (ip), vehicle: saline
[9] = endpoint: mean survival time, dose: 400.0 mg/kg/injection, schedule: Q01DX001 (ip), vehicle: saline
[10] = endpoint: mean survival time, dose: 100.0 mg/kg/injection, schedule: Q01DX009 (ip), vehicle: saline
[11] = endpoint: mean survival time, dose: 200.0 mg/kg/injection, schedule: Q01DX009 (ip), vehicle: saline
[12] = endpoint: mean survival time, dose: 50.0 mg/kg/injection, schedule: Q04DX002 (ip), vehicle: saline with Tween-80
[13] = endpoint: mean survival time, dose: 100.0 mg/kg/injection, schedule: Q04DX003 (ip), vehicle: saline with Tween-80
[14] = endpoint: mean survival time, dose: 200.0 mg/kg/injection, schedule: Q01DX009 (ip), vehicle: saline with Tween-80
[15] = endpoint: mean survival time, dose: 200.0 mg/kg/injection, schedule: Q04DX003 (ip), vehicle: saline with Tween-80
[16] = endpoint: mean survival time, dose: 400.0 mg/kg/injection, schedule: Q01DX009 (ip), vehicle: saline with Tween-80
[17] = endpoint: mean survival time, dose: 400.0 mg/kg/injection, schedule: Q04DX003 (ip), vehicle: saline with Tween-80

Measured: T/C

CC12CCC(OC3CCCCO3)CC1=CCC1C2CCC2(C)C1CCC21CCNP(=O)(N(CCCl)CCCl)O1 (stereo not given)
inactive: endpoint: mean survival time, dose: 12.5 mg/kg/injection, schedule: Q01DX005 (ip), vehicle: other 100 % of control | endpoint: mean survival time, dose: 25.0 mg/kg/injection, schedule: Q01DX005 (ip), vehicle: other 91 % of control | endpoint: mean survival time, dose: 50.0 mg/kg/injection, schedule: Q01DX005 (ip), vehicle: other 95 % of control | endpoint: mean survival time, dose: 100.0 mg/kg/injection, schedule: Q01DX005 (ip), vehicle: other 95 % of control | endpoint: mean survival time, dose: 125.0 mg/kg/injection, schedule: Q01DX001 (ip), vehicle: Klucel (hydroxypropylcellulose) (HPC) 95 % of control | endpoint: mean survival time, dose: 250.0 mg/kg/injection, schedule: Q01DX001 (ip), vehicle: Klucel (hydroxypropylcellulose) (HPC) 96 % of control | endpoint: mean survival time, dose: 500.0 mg/kg/injection, schedule: Q01DX001 (ip), vehicle: Klucel (hydroxypropylcellulose) (HPC) 101 % of control | endpoint: mean survival time, dose: 1000.0 mg/kg/injection, schedule: Q01DX001 (ip), vehicle: Klucel (hydroxypropylcellulose) (HPC) 98 % of control

O=C(CCCN1CCC2(CC1)CNC(=O)N2c1ccccc1)c1ccc(F)cc1
inactive: [1] 101 % of control | [2] 98 % of control | [3] 91 % of control

O=[N+]([O-])c1ccc(Sc2ccncn2)c([N+](=O)[O-])c1
inactive: endpoint: median survival time, dose: 6.25 mg/kg/injection, schedule: Q01DX009 (ip), vehicle: saline with Tween-80 101 % of control | endpoint: median survival time, dose: 12.5 mg/kg/injection, schedule: Q01DX009 (ip), vehicle: saline with Tween-80 102 % of control | endpoint: median survival time, dose: 25.0 mg/kg/injection, schedule: Q01DX009 (ip), vehicle: saline with Tween-80 103 % of control | endpoint: median survival time, dose: 50.0 mg/kg/injection, schedule: Q01DX009 (ip), vehicle: saline with Tween-80 105 % of control | endpoint: median survival time, dose: 100.0 mg/kg/injection, schedule: Q01DX009 (ip), vehicle: saline with Tween-80 113 % of control

O=C(Oc1ccccc1)c1ccccc1O
inactive: [4] 105 % of control | [5] 109 % of control | [1] 101 % of control | [6] 105 % of control | [2] 89 % of control | [3] 95 % of control

CC(=O)NC(C)NC(C)=O
inactive: [7] 103 % of control | [8] 103 % of control | [9] 103 % of control

Cn1ccc(CON)n1
inactive: [10] 94 % of control | [11] 93 % of control

Cc1oc([N+](=O)[O-])c(C)c1C(=O)O
inactive: [12] 101 % of control | endpoint: mean survival time, dose: 100.0 mg/kg/injection, schedule: Q04DX002 (ip), vehicle: saline with Tween-80 97 % of control | endpoint: mean survival time, dose: 200.0 mg/kg/injection, schedule: Q04DX002 (ip), vehicle: saline with Tween-80 104 % of control

NC(=S)N/N=C\c1ncccc1O
inactive: endpoint: mean survival time, dose: 25.0 mg/kg/injection, schedule: Q03HX024 (ip), vehicle: saline 120 % of control

[Br][Ni][Br].[NH-]CC[NH-].[NH-]CC[NH-]
inactive: endpoint: mean survival time, dose: 25.0 mg/kg/injection, schedule: Q04DX002 (ip), vehicle: saline with Tween-80 104 % of control | [12] 110 % of control

Clc1nc(Cl)nc(-c2cn(-c3ccccc3)c3ccccc23)n1
inactive: [6] 95 % of control | [13] 89 % of control | [14] 95 % of control | [15] 97 % of control | [16] 96 % of control | [17] 98 % of control

CCC(C)CNCCO (stereo not given)
inactive: endpoint: mean survival time, dose: 100.0 mg/kg/injection, schedule: Q04DX003 (ip), vehicle: saline 100 % of control | endpoint: mean survival time, dose: 200.0 mg/kg/injection, schedule: Q04DX003 (ip), vehicle: saline 95 % of control

CCC(C)Nc1ccc(N)cc1 (stereo not given)
inactive: endpoint: mean survival time, dose: 0.09 mg/kg/injection, schedule: Q01DX009 (ip), vehicle: Klucel (hydroxypropylcellulose) (HPC) 103 % of control | endpoint: mean survival time, dose: 0.18 mg/kg/injection, schedule: Q01DX009 (ip), vehicle: Klucel (hydroxypropylcellulose) (HPC) 94 % of control | endpoint: mean survival time, dose: 0.37 mg/kg/injection, schedule: Q01DX009 (ip), vehicle: Klucel (hydroxypropylcellulose) (HPC) 103 % of control | endpoint: mean survival time, dose: 0.75 mg/kg/injection, schedule: Q01DX009 (ip), vehicle: Klucel (hydroxypropylcellulose) (HPC) 103 % of control | endpoint: mean survival time, dose: 1.5 mg/kg/injection, schedule: Q01DX009 (ip), vehicle: Klucel (hydroxypropylcellulose) (HPC) 102 % of control | endpoint: mean survival time, dose: 3.0 mg/kg/injection, schedule: Q01DX009 (ip), vehicle: Klucel (hydroxypropylcellulose) (HPC) 94 % of control

O=C(/C=C/c1ccccc1Cl)c1ccccc1[N+](=O)[O-]
inactive: [6] 89 % of control | [14] 94 % of control | [16] 95 % of control

C=CC[n+]1ccc2ccccc2c1
inactive: endpoint: mean survival time, dose: 100.0 mg/kg/injection, schedule: Q04DX003 (ip), vehicle: saline sonified 97 % of control

NC(=O)Nc1ccccc1
inactive: [10] 98 % of control | [11] 98 % of control | endpoint: mean survival time, dose: 400.0 mg/kg/injection, schedule: Q01DX009 (ip), vehicle: saline 101 % of control

COc1ccc(COc2ccc(Cl)cc2)cc1
inactive: endpoint: mean survival time, dose: 75.0 mg/kg/injection, schedule: Q04DX002 (ip), vehicle: saline with Tween-80 87 % of control | endpoint: mean survival time, dose: 150.0 mg/kg/injection, schedule: Q04DX002 (ip), vehicle: saline with Tween-80 98 % of control | endpoint: mean survival time, dose: 300.0 mg/kg/injection, schedule: Q04DX002 (ip), vehicle: saline with Tween-80 106 % of control

O=c1c2cc[nH]c2ncn1C1OC(CO)C(O)C1O (stereo not given)
inactive: endpoint: mean survival time, dose: 12.5 mg/kg/injection, schedule: Q01DX005 (ip), vehicle: saline 96 % of control | endpoint: mean survival time, dose: 25.0 mg/kg/injection, schedule: Q01DX005 (ip), vehicle: saline 107 % of control

NCCCc1ccccc1
inactive: [10] 103 % of control | [11] 90 % of control

Cc1cn(C2CC3O[P@@](=S)(Nc4ccccc4)OCC3O2)c(=O)[nH]c1=O (stereo not given in full)
inactive: endpoint: median survival time, dose: 11.5 mg/kg/injection, schedule: Q01DX005 (ip), vehicle: saline with Tween-80 108 % of control | endpoint: median survival time, dose: 23.0 mg/kg/injection, schedule: Q01DX005 (ip), vehicle: saline with Tween-80 103 % of control | endpoint: median survival time, dose: 46.0 mg/kg/injection, schedule: Q01DX005 (ip), vehicle: saline with Tween-80 98 % of control

CNC1(C(=O)c2ccccc2)CC2CCC1C2 (stereo not given)
inactive: [7] 95 % of control | [8] 96 % of control | [9] 98 % of control

O=C(O)CCC(NC(=O)OCc1ccccc1)C(=O)OCc1ccccc1 (stereo not given)
inactive: [13] 95 % of control | [15] 93 % of control | [17] 96 % of control

COc1ccc(Cn2cnc3c(=S)nc[nH]c32)cc1
inactive: endpoint: mean survival time, dose: 100.0 mg/kg/injection, schedule: Q01DX001 (ip), vehicle: Klucel (hydroxypropylcellulose) (HPC) 91 % of control | endpoint: mean survival time, dose: 200.0 mg/kg/injection, schedule: Q01DX001 (ip), vehicle: Klucel (hydroxypropylcellulose) (HPC) 100 % of control | endpoint: mean survival time, dose: 400.0 mg/kg/injection, schedule: Q01DX001 (ip), vehicle: Klucel (hydroxypropylcellulose) (HPC) 94 % of control

CCCCCCCCCCCCCCCCCCCC
inactive: endpoint: mean survival time, dose: 25.0 mg/kg/injection, schedule: Q04DX003 (ip), vehicle: other 90 % of control | endpoint: mean survival time, dose: 50.0 mg/kg/injection, schedule: Q04DX003 (ip), vehicle: other 91 % of control | endpoint: mean survival time, dose: 100.0 mg/kg/injection, schedule: Q04DX003 (ip), vehicle: other 88 % of control

CCC(C)CC(N)O (stereo not given)
inactive: endpoint: mean survival time, dose: 75.0 mg/kg/injection, schedule: Q01DX001 (ip), vehicle: saline 103 % of control | endpoint: mean survival time, dose: 150.0 mg/kg/injection, schedule: Q01DX001 (ip), vehicle: saline 97 % of control

CCCCCC(=O)C(CCCC)C(=O)Nc1ccccc1 (stereo not given)
inactive: [13] 94 % of control | [15] 96 % of control | [17] 91 % of control

Cc1ccccc1NC(=O)CC#N
inactive: [4] 96 % of control | [5] 96 % of control | [6] 94 % of control

O=C1c2cccc3cccc(c23)C(=O)N1Cc1ccccc1
inactive: [13] 98 % of control | [15] 87 % of control | [17] 91 % of control

c1ccc(C2Nc3ccccc3NC2c2ccccc2)cc1 (stereo not given)
inactive: [1] 95 % of control | [2] 97 % of control | [3] 103 % of control

— PubChem BioAssay AID256 (DTP/NCI, 2004)
